From paper PMC7490411 (Signal Transduction and Targeted Therapy, 2020)

Tests used:
EPHA1 = test: KINOMEscan; format: binding; settings: 1000 nM
DMPK2 = test: KINOMEscan; format: binding; settings: 1000 nM
ERBB2 = test: KINOMEscan; format: binding; settings: 1000 nM
EPHA5 = test: KINOMEscan; format: binding; settings: 1000 nM
CAMK4 = test: KINOMEscan; format: binding; settings: 1000 nM
IGF1R = test: KINOMEscan; format: binding; settings: 1000 nM
[1] = test system: ABL1(Q252H)-phosphorylated; test: KINOMEscan; format: binding; settings: 1000 nM
CSNK1D = test: KINOMEscan; format: binding; settings: 1000 nM
EGFR(T790M) = test: KINOMEscan; format: binding; settings: 1000 nM
PIP5K1C = test: KINOMEscan; format: binding; settings: 1000 nM
[2] = test system: ABL1(T315I)-nonphosphorylated; test: KINOMEscan; format: binding; settings: 1000 nM
CDK4-cyclinD3 = test: KINOMEscan; format: binding; settings: 1000 nM
EPHB1 = test: KINOMEscan; format: binding; settings: 1000 nM
MRCKB = test: KINOMEscan; format: binding; settings: 1000 nM
MLK1 = test: KINOMEscan; format: binding; settings: 1000 nM
SgK110 = test: KINOMEscan; format: binding; settings: 1000 nM
PRKX = test: KINOMEscan; format: binding; settings: 1000 nM
PYK2 = test: KINOMEscan; format: binding; settings: 1000 nM
ERK1 = test: KINOMEscan; format: binding; settings: 1000 nM
MEK3 = test: KINOMEscan; format: binding; settings: 1000 nM
LKB1 = test: KINOMEscan; format: binding; settings: 1000 nM
PCTK3 = test: KINOMEscan; format: binding; settings: 1000 nM
STK36 = test: KINOMEscan; format: binding; settings: 1000 nM
HIPK3 = test: KINOMEscan; format: binding; settings: 1000 nM
YANK1 = test: KINOMEscan; format: binding; settings: 1000 nM
LZK = test: KINOMEscan; format: binding; settings: 1000 nM
RAF1 = test: KINOMEscan; format: binding; settings: 1000 nM
[3] = rat 14-day dose escalation subacute toxicity study; format: in vivo; settings: rats, up to 800 mg/kg/day, continuous 14 days
Method: The subacute toxicity study of CHMFL-BTK-85 was conducted on SD rats, 200g in weight and five weeks in age. All mice were purchased from Gempharmatech Co., Ltd (Nanjing, China). All animals were housed in a specific pathogen-free facility and used according to the animal care regulations of Hefei Institutes of Physical Science Chinese Academy of Sciences. CHMFL-BTK-85 was delivered daily in a HKI solution (0.5% Methocellulose/0.4% Tween 80 in ddH2O) by orally gavage. Body weight was measured daily after CHMFL-BTK-85 treatment.

CDK3 = test: KINOMEscan; format: binding; settings: 1000 nM
DYRK1B = test: KINOMEscan; format: binding; settings: 1000 nM
DMPK = test: KINOMEscan; format: binding; settings: 1000 nM
ALK(L1196M) = test: KINOMEscan; format: binding; settings: 1000 nM
DRAK1 = test: KINOMEscan; format: binding; settings: 1000 nM
OSR1 = test: KINOMEscan; format: binding; settings: 1000 nM
468 kinases/mutants = test: KINOMEscan kinome-wide selectivity profiling; format: binding; settings: 1 μM
Description: Here, we report the discovery of a novel covalent BTK inhibitor, CHMFL-BTK-85 (abbreviated as compd. 85) (chemical structure shown in Fig. 1a), which achieves high potency against BTK and selectivity over other protein kinases. […] To further confirm that compd. 85 could covalently bind to wide-type native BTK in cell, we then conducted a target-engagement assay using the biotinylated analog of compd. 85, i.e., CHMFL-BTK-85B (Supplementary Fig. S2), in REC-1 cell which expresses native BTK kinase. […] To further investigate the selectivity of compd. 85 in the kinome, we then tested it among 468 kinases/mutants with KINOMEscan^TM technology.

PKNB(M.tuberculosis) = test: KINOMEscan; format: binding; settings: 1000 nM
BRSK1 = test: KINOMEscan; format: binding; settings: 1000 nM
TNIK = test: KINOMEscan; format: binding; settings: 1000 nM
ERK8 = test: KINOMEscan; format: binding; settings: 1000 nM
WEE2 = test: KINOMEscan; format: binding; settings: 1000 nM
SGK3 = test: KINOMEscan; format: binding; settings: 1000 nM
PRKD3 = test: KINOMEscan; format: binding; settings: 1000 nM
PIK3CA(E542K) = test: KINOMEscan; format: binding; settings: 1000 nM
CDC2L5 = test: KINOMEscan; format: binding; settings: 1000 nM
CLK3 = test: KINOMEscan; format: binding; settings: 1000 nM
SBK1 = test: KINOMEscan; format: binding; settings: 1000 nM
MEK1 = test: KINOMEscan; format: binding; settings: 1000 nM
JNK3 = test: KINOMEscan; format: binding; settings: 1000 nM
KIT(D816V) = test: KINOMEscan; format: binding; settings: 1000 nM
DCAMKL3 = test: KINOMEscan; format: binding; settings: 1000 nM

Compound: C=CC(=O)Nc1cc(Nc2cc(-c3cccc(NC(=O)c4cc5c(s4)CCCC5)c3C)cn(C)c2=O)ccc1N1CCN(CC)CC1 [CHMFL-BTK-85]
- Percent Control (EPHA1): 90%
- Percent Control (DMPK2): 100%
- Percent Control (ERBB2): 99%
- Percent Control (EPHA5): 100%
- Percent Control (CAMK4): 100%
- Percent Control (IGF1R): 76%
- Percent Control [1]: 96%
- Percent Control (CSNK1D): 82%
- Percent Control (EGFR(T790M)): 98%
- Percent Control (PIP5K1C): 99%
- Percent Control [2]: 94%
- Percent Control (CDK4-cyclinD3): 88%
- Percent Control (EPHB1): 100%
- Percent Control (MRCKB): 75%
- Percent Control (MLK1): 81%
- Percent Control (SgK110): 92%
- Percent Control (PRKX): 95%
- Percent Control (PYK2): 100%
- Percent Control (ERK1): 93%
- Percent Control (MEK3): 100%
- Percent Control (LKB1): 92%
- Percent Control (PCTK3): 86%
- Percent Control (STK36): 99%
- Percent Control (HIPK3): 100%
- Percent Control (YANK1): 100%
- Percent Control (LZK): 100%
- Percent Control (RAF1): 88%
- tolerability in dose escalation study [3]: well tolerated
- Percent Control (CDK3): 86%
- Percent Control (DYRK1B): 99%
- Percent Control (DMPK): 92%
- Percent Control (ALK(L1196M)): 100%
- Percent Control (DRAK1): 97%
- Percent Control (OSR1): 100%
- S Score (1) (468 kinases/mutants): 0.00
- Percent Control (PKNB(M.tuberculosis)): 88%
- Percent Control (BRSK1): 100%
- Percent Control (TNIK): 99%
- Percent Control (ERK8): 95%
- Percent Control (WEE2): 96%
- Percent Control (SGK3): 100%
- Percent Control (PRKD3): 100%
- Percent Control (PIK3CA(E542K)): 99%
- Percent Control (CDC2L5): 100%
- Percent Control (CLK3): 80%
- Percent Control (SBK1): 100%
- Percent Control (MEK1): 100%
- Percent Control (JNK3): 98%
- Percent Control (KIT(D816V)): 71%
- Percent Control (DCAMKL3): 100%
